IC50 data for 35 molecules are collected here from patent US10093623B2, “Cyclic amides as MetAP-2 inhibitors” (MERCK PATENT GmbH, priority 2012, dated 2018).

Molecules are shown by their SMILES.

This assay addresses MetAP-2 (Homo sapiens, UniProt P50579). Nature of the assay: MetAP-2 activity measurement (coupled enzymatic reactions, Met-Arg-Ser substrate, dianisidine detection at 450 nm). Format: biochemical. To be noted: Inhibition of MetAP-2; read-out: IC50 enzyme. The procedure, abridged: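 Coupled continuous assay with Met-Arg-Ser tripeptide substrate: released methionine oxidised by L-amino acid oxidase to give H2O2, which peroxidase uses to oxidise dianisidine, followed at 450 nm. Activity taken as slope of absorbance versus time over the visually linear region; dianisidine extinction coefficient converts to mol Met per time.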

Chain of MetAP-2 (P50579 whole entry, species assumed): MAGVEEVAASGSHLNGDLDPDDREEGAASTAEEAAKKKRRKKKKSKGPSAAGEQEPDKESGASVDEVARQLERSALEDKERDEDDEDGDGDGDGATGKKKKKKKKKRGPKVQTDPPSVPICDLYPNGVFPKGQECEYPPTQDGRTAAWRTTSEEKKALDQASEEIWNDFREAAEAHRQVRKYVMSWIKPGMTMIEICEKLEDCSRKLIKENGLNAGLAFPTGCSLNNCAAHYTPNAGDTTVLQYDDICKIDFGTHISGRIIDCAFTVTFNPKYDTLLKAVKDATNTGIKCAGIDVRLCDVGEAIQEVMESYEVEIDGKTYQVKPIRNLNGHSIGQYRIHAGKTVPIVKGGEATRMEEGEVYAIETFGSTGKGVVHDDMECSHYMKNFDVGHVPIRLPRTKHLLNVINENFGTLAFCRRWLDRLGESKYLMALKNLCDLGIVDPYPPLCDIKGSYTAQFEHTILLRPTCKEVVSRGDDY

Take `O=C(NCCc1cc(F)cc(F)c1)[C@]1(O)CCN(c2ccc3[nH]ccc3c2)C1=O` [B111, N-[2-(3,5-Difluorophenyl)ethyl]-(R)-3-hydroxy-1-(1H-indol-5-yl)-2-oxopyrrolidine-3-carboxamide]: the IC50 was in the range of 1000 to 10000 nM. The value for `COc1cc(Cl)c(C)cc1N1CCC(O)(C(=O)NCc2cc(F)cc(Cl)c2)C1=O` (centres unmarked) [B12, N-(3-Chloro-5-fluorobenzyl)-1-(4-chloro-2-methoxy-5-methyl-phenyl)-3-hydroxy-2-oxo-pyrrolidine-3-carboxamide] was 1000 to 10000 nM; that for `O=C1NCCc2ccc(N3CCC(O)(C(=O)NCc4cc(F)cc(Cl)c4)C3=O)cc21` (centres unmarked) [A115, N-(3-Chloro-5-fluorobenzyl)-3-hydroxy-2-oxo-1-(1-oxo-1,2,3,4-tetrahydroisoquinolin-7-yl)-pyrrolidine-3-carboxamide] was 10 to 1000 nM; that for `O=C1CCc2cc(N3CC[C@](O)(C(=O)NCCc4ccccc4F)C3=O)ccc2N1` [B5, N-[2-(2-Fluorophenyl)ethyl]-(S)-3-hydroxy-2-oxo-1-(2-oxo-1,2,3,4-tetrahydroquinolin-6-yl)-pyrrolidine-3-carboxamide] was 10 to 1000 nM. The value for `C/C=C/C(=O)[C@@]1(O)CCN(c2ccccc2)C1=O` [A70, (S)-3-((E)-but-2-enoyl)-3-hydroxy-1-phenylpyrrolidin-2-one] was above 10000 nM; that for `CCC(=O)Nc1ccc(N2CCC(O)(C(=O)NCc3cc(F)cc(Cl)c3)C2=O)cn1` (centres unmarked) [A78, N-(3-Chloro-5-fluorobenzyl)-3-hydroxy-2-oxo-1-(6-propionylaminopyridin-3-yl)-pyrrolidine-3-carboxamide] was 10 to 1000 nM; that for `O=C1CCc2c(ccc(N3CCC(O)(C(=O)NCc4cc(F)cc(Cl)c4)C3=O)c2F)N1` (centres unmarked) [B124, N-(3-Chloro-5-fluorobenzyl)-1-(5-fluoro-2-oxo-1,2,3,4-tetrahydroquinolin-6-yl)-3-hydroxy-2-oxopyrrolidine-3-carboxamide] was 10 to 1000 nM.

Consider `O=C(NCCc1cc(F)cc(Cl)c1)[C@@]1(O)CCN(c2ccc3[nH]ncc3c2)C1=O` [A191, N-[2-(3-Chloro-5-fluorophenyl)-ethyl]-(S)-3-hydroxy-1-(1H-indazol-5-yl)-2-oxopyrrolidine-3-carboxamide], for which the IC50 was 10 to 1000 nM. Under `O=C(NCc1cc(F)cc(Cl)c1)C1(O)CCN(Cc2ccccc2)C1` (centres unmarked) [A121, N-(3-chloro-5-fluorobenzyl)-1-benzyl-3-hydroxypyrrolidine-3-carboxamide] stands 1000 to 10000 nM; under `O=C(NCc1cc(F)cc(Cl)c1)C1(O)CCN([C@H]2CCNC2)C1=O` (stereo partly drawn) [A233, N-(3-Chloro-5-fluorobenzyl)-(S)-3-hydroxy-2-oxo-[1,3′]bipyrrolidinyl-3-carboxamide], above 10000 nM; under `Cc1nnc(CN2CCC(O)(C(=O)NCc3cc(F)cc(Cl)c3)C2=O)o1` (centres unmarked) [A290, N-(3-Chloro-5-fluorobenzyl)-3-hydroxy-1-(5-methyl-1,3,4-oxadiazol-2-ylmethyl)-2-oxo-pyrrolidine-3-carboxamide], 1000 to 10000 nM.

With `CC(=O)N1CC[C@@H](N2CCC(O)(C(=O)NCc3cc(F)cc(Cl)c3)C2=O)C1` (stereo partly drawn) [A291, N-(3-chloro-5-fluorobenzyl-)(R)-1′-acetyl-3-hydroxy-2-oxo-[1,3′]bipyrrolidinyl-3-carboxamide], the IC50 lay within 1000 to 10000 nM. Consider `COCCn1cc(N2CC[C@@](O)(C(=O)NCc3cc(F)cc(Cl)c3)C2=O)cn1` [B100, N-(3-Chloro-5-fluorobenzyl)-(R)-3-hydroxy-1-[1-(2-methoxy-ethyl)-1H-pyrazol-4-yl]-2-oxo-pyrrolidine-3-carboxamide], for which the IC50 is above 10000 nM. The value for `CCS(=O)(=O)NC1CCCC(N2CCC(O)(C(=O)NCc3cc(F)cc(Cl)c3)C2=O)C1` (centres unmarked) [A128, N-(3-Chloro-5-fluorobenzyl)-1-(3-ethanesulfonylamino-cyclohexyl)-3-hydroxy-2-oxo-pyrrolidine-3-carboxamide] was 1000 to 10000 nM; that for `CNC(=O)CN1CCC(O)(C(=O)NCc2cc(F)cc(Cl)c2)C1=O` (centres unmarked) [A208, N-(3-Chloro-5-fluorobenzyl)-3-hydroxy-1-methylcarbamoyl-methyl-2-oxopyrrolidine-3-carboxamide] was 1000 to 10000 nM. The value for `O=C(NCc1cc(F)cc(Cl)c1)C1(O)CCN(c2ccc3[nH]cc(C(F)(F)F)c3c2)C1=O` (centres unmarked) [B43, N-(3-Chloro-5-fluorobenzyl)-3-hydroxy-2-oxo-1-(3-trifluoromethyl-1H-indol-5-yl)-pyrrolidine-3-carboxamide] was 10 to 1000 nM; that for `O=C(NCCc1cc(F)cc(F)c1)[C@@]1(O)CCN(c2ccc3[nH]ccc3c2)C1=O` [B110, N-[2-(3,5-Difluorophenyl)ethyl]-(S)-3-hydroxy-1-(1H-indol-5-yl)-2-oxopyrrolidine-3-carboxamide] was 10 to 1000 nM. Under `C=C(Cc1ccccc1)C(=O)C1(O)CCN(c2ccccc2)C1=O` (centres unmarked) [A89, 3-(2-benzylacryloyl)-3-hydroxy-1-phenylpyrrolidin-2-one] stands above 10000 nM; under `CC(=O)N[C@H]1CC[C@H](N2CCC(O)(C(=O)NCc3cc(F)cc(Cl)c3)C2=O)CC1` (some centres unmarked) [A122, N-(3-Chloro-5-fluorobenzyl)-1-(4-acetylaminocyclohexyl)-3-hydroxy-2-oxopyrrolidine-3-carboxamide], 1000 to 10000 nM; under `CNC(=O)[C@H]1CC[C@H](N2CCC(O)(C(=O)NCc3cc(F)cc(Cl)c3)C2=O)CC1` (some centres unmarked) [A157, N-(3-Chloro-5-fluorobenzyl)-3-hydroxy-1-(4-methylcarbamoyl-cyclohexyl)-2-oxopyrrolidine-3-carboxamide], 1000 to 10000 nM. In the case of `O=C1CCc2cc(N3CC[C@@](O)(C(=O)NCCc4cc(F)cc(F)c4)C3=O)ccc2N1` [A223, N-[2-(3,5-Difluorophenyl)ethyl]-(R)-3-hydroxy-2-oxo-1-(2-oxo-1,2,3,4-tetrahydroquinolin-6-yl)-pyrrolidine-3-carboxamide], the IC50 is above 10000 nM. Take `O=C(CN1CCC(O)(C(=O)NCc2cc(F)cc(Cl)c2)C1=O)Nc1ccccc1` (centres unmarked) [A187, N-(3-Chloro-5-fluorobenzyl)-3-hydroxy-2-oxo-1-phenyl-carbamoylmethylpyrrolidine-3-carboxamide]: the IC50 was 1000 to 10000 nM.

Take `O=C(NCc1cc(F)cc(Cl)c1)C1(O)CCN(c2ccc(Cl)c(C(F)(F)F)c2)C1=O` (centres unmarked) [B27, N-(3-Chloro-5-fluorobenzyl)-1-(4-Chloro-3-trifluoromethyl-phenyl)-3-hydroxy-2-oxo-pyrrolidine-3-carboxamide]: the IC50 lay in the range of 10 to 1000 nM. With `O=C(NCc1cc(F)cc(Cl)c1)C1(O)CCN([C@H]2CC[C@H](C(=O)O)CC2)C1=O` (some centres unmarked) [A152, 4-[3-(3-Chloro-5-fluorobenzyl-carbamoyl)-3-hydroxy-2-oxo-pyrrolidin-1-yl]-cyclohexanecarboxylic acid], the IC50 is 1000 to 10000 nM. With `O=C1CCc2cc(CN3CCC(O)(C(=O)NCc4cc(F)cc(Cl)c4)C3=O)ccc2N1` (centres unmarked) [B69, N-(3-Chloro-5-fluorobenzyl)-3-hydroxy-2-oxo-1-(2-oxo-1,2,3,4-tetrahydroquinolin-6-ylmethyl)-pyrrolidine-3-carboxamide], the IC50 is 10 to 1000 nM. Turning to `NC(=O)CCN1CCC(O)(C(=O)NCc2cc(F)cc(Cl)c2)C1=O` (centres unmarked) [A300, N-(3-Chloro-5-fluorobenzyl)-1-(2-carbamoylethyl)-3-hydroxy-2-oxopyrrolidine-3-carboxamide], the IC50 was 1000 to 10000 nM. The value for `O=C1N(c2ccccc2)CCC1(O)CNCCc1ccc(F)cc1` (centres unmarked) [B47, 3-{[2-(4-Fluorophenyl)-ethylamino]methyl}-3-hydroxy-1-phenylpyrrolidin-2-one] was 1000 to 10000 nM; that for `O=C(NCc1cc(F)cc(Cl)c1)C1(O)CCN(c2ccc3cc[nH]c3c2)C1=O` (centres unmarked) [A68, N-(3-Chloro-5-fluorobenzyl)-3-hydroxy-1-(1H-indol-6-yl)-2-oxo-pyrrolidine-3-carboxamide] was 10 to 1000 nM; that for `O=C(c1cccc(N2CC[C@](O)(C(=O)NCc3cc(F)cc(Cl)c3)C2=O)c1)N1CCCC1` [A77, N-(3-Chloro-5-fluorobenzyl)-(S)-3-hydroxy-2-oxo-1-[3-(pyrrolidine-1-carbonyl)phenyl]pyrrolidine-3-carboxamide] was 10 to 1000 nM. The value for `O=C(NCc1cc(F)cc(Cl)c1)C1(O)CCN(c2cnn(-c3ccccc3)c2)C1=O` (centres unmarked) [A169, N-(3-Chloro-5-fluorobenzyl)-3-hydroxy-2-oxo-1-(1-phenyl-1H-pyrazol-4-yl)pyrrolidine-3-carboxamide] was 10 to 1000 nM. The value for `O=C(NCc1cc(F)cc(Cl)c1)[C@@]1(O)CCN(c2cccc(NS(=O)(=O)C3CC3)c2)C1=O` [A80, N-(3-Chloro-5-fluorobenzyl)-(S)-1-(3-cyclopropanesulfonylamino-phenyl)-3-hydroxy-2-oxo-pyrrolidine-3-carboxamide] was 10 to 1000 nM. In the case of `CNC(=O)c1cc2cc(N3CC[C@@](O)(C(=O)NCc4cc(F)cc(Cl)c4)C3=O)ccc2[nH]1` [B102, N-Methyl-5-[(R)-3-(3-chloro-5-fluorobenzylcarbamoyl)-3-hydroxy-2-oxopyrrolidin-1-yl]-1H-indole-2-carboxamide], the IC50 is above 10000 nM. Under `O=C(NCCCO)c1cccc(N2CC[C@@](O)(C(=O)NCc3cc(F)cc(Cl)c3)C2=O)c1` [A103, N-(3-Chloro-5-fluorobenzyl)-(R)-3-hydroxy-1-[3-(3-hydroxy-propylcarbamoyl)phenyl]-2-oxo-pyrrolidine-3-carboxamide] stands 1000 to 10000 nM. The value for `O=C1CCc2cc(N3CC[C@](O)(C(=O)NCc4c(F)ccc(Cl)c4F)C3=O)ccc2N1` [A250, N-(3-Chloro-2,6-difluorobenzyl)-(S)-3-hydroxy-2-oxo-1-(2-oxo-1,2,3,4-tetrahydroquinolin-6-yl)-pyrrolidine-3-carboxamide] was 10 to 1000 nM.

Turning to `O=C(NCc1cc(F)cc(Cl)c1)[C@@]1(O)CCN(CCc2c[nH]c3ccccc23)C1=O` [B37, N-(3-Chloro-5-fluorobenzyl)-(S)-3-hydroxy-1-[2-(1H-indol-3-yl)-ethyl]-2-oxopyrrolidine-3-carboxamide], the IC50 lay in the range of 10 to 1000 nM.
